Measurements taken from article PMC5698418 (Nature Communications, 2017).
Counter-ions that a name gives are not always drawn. Like-named read-outs stand apart in the source and are kept apart here. Non-standard residues stand in square brackets, D forms with d. Residues, ends and D or L forms follow the SMILES beside them. αMeP = C[C@@]1(C(=O)O)CCCN1

Tested on: BDNF-induced nuclear Arc expression in primary cortical neurons
Assay: Chemogenomic screen: high-content image-based assay of BDNF-induced nuclear Arc expression (96-well)
Assay type: cell-based, mouse
Method: To increase the throughput of our pharmacological screening for modulators of Arc, the above mentioned assay was adapted to cultures of mouse primary cortical neurons in 96-well plates.
All 319 compounds were initially tested at a final concentration of 16.7 µM with three biological replicates.
Screening of compounds in the chemogenomic library was carried out using DIV13 primary forebrain cortical neurons cultured on poly-L-lysine/laminin-coated 96-well plates (Ibidi USA, Madison, WI). Cells were seeded at a density of 30,000 cells per well and treated with the compound library and BDNF according to the experimental design presented in Fig. 3a. After experimental treatment, cells were processed for Arc and acetyl-H3K9 immunocytochemistry according to the protocol described above. Both antigens (Arc and acetyl-H3K9) were imaged using an IN Cell Analyzer 6000 imaging system and a ×40 objective. […] High-throughput quantification of nuclear Arc immunofluorescence signal was performed in a similar fashion than the low-throughput procedure described above but with the exception that acetyl-H3K9 was used as a nuclear mask to guide the automated quantification of nuclear Arc immunofluorescence signal.

[1] = chemogenomic (SMART) screen, BDNF-induced nuclear Arc expression, primary cortical neurons, BDNF control 19.5
[2] = nuclear Arc-positive cells relative to DMSO + BDNF control, negative values = decrease
[3] = BDNF-induced nuclear Arc expression, primary cortical neurons, chemogenomic screen
[4] = nuclear Arc-positive cells relative to DMSO control (BDNF), negative = decrease

OCCOCCN1CCN(C(c2ccccc2)c2ccc(Cl)cc2)CC1 (centres unmarked) [Hydroxyzine dihydrochloride]
Percentage of cell with nuclear Arc immunostaining above 2σ threshold [1]: 27.2%
Fold-change — Normalized to DMSO control (BDNF) [2]: 1.4 fold

CC1Nc2ccc(Cl)cc2S(=O)(=O)N1 (centres unmarked) [IDRA-21]
Percentage of cell with nuclear Arc immunostaining above 2σ threshold [1]: 12.2%
Fold-change — Normalized to DMSO control (BDNF) [2]: -1.6 fold

Cn1cc(C2=C(c3coc4ccccc34)C(=O)NC2=O)c2cc(Br)ccc21 [ING-135]
Percentage of cell with nuclear Arc immunostaining above 2σ threshold: 34.1%
Fold-change — Normalized to DMSO control (BDNF) [2]: 1.7 fold

O=C(O)c1ccc(O)c2ncccc12 [IOX1]
Percentage of cell with nuclear Arc immunostaining above 2σ threshold [1]: 44.2%
Fold-change — Normalized to DMSO control (BDNF) [2]: 2.3 fold

O=C(O)CNC(=O)c1c(O)c2ccccc2n(Cc2ccccc2)c1=O [IOX2]
Percentage of cell with nuclear Arc immunostaining above 2σ threshold [1]: 45.4%
Fold-change — Normalized to DMSO control (BDNF) [2]: 2.3 fold

CC(C)(N)C(=O)N[C@H](COCc1ccccc1)C(=O)N1CCC2(CC1)CN(S(C)(=O)=O)c1ccccc12 [Ibutamoren]
Percentage of cell with nuclear Arc immunostaining above 2σ threshold [3]: 7.1%

COc1ccc(-c2oc3c(CC=C(C)C)c(O[C@@H]4O[C@H](CO)[C@@H](O)[C@H](O)[C@H]4O)cc(O)c3c(=O)c2O[C@@H]2O[C@@H](C)[C@H](O)[C@@H](O)[C@H]2O)cc1 [Icariin]
Percentage of cell with nuclear Arc immunostaining above 2σ threshold [1]: 43.8%
Fold-change — Normalized to DMSO control (BDNF) [2]: 2.2 fold

Cl.c1ccc2c(c1)OCC(C1=NCCN1)O2 (centres unmarked) [Idazoxan hydrochloride, RX 781094]
Percentage of cell with nuclear Arc immunostaining above 2σ threshold [1]: 24.1%
Fold-change — Normalized to DMSO control (BDNF) [2]: 1.2 fold

COc1cc(C(C)=O)ccc1OCCCN1CCC(c2noc3cc(F)ccc23)CC1 [Iloperidone]
Percentage of cell with nuclear Arc immunostaining above 2σ threshold [3]: 8.3%

CNC1CC(c2ccc(Cl)c(Cl)c2)c2ccccc21 (centres unmarked) [Indatraline]
Percentage of cell with nuclear Arc immunostaining above 2σ threshold: 0.0%

O=C1c2ccccc2S(=O)(=O)N1CCCCN1CCN(c2ncccn2)CC1 [Ipsapirone]
Percentage of cell with nuclear Arc immunostaining above 2σ threshold [1]: 27.4%
Fold-change — Normalized to DMSO control (BDNF) [2]: 1.4 fold

Cc1cc(C(=O)NNCc2ccccc2)no1 [Isocarboxazid]
Percentage of cell with nuclear Arc immunostaining above 2σ threshold [1]: 21.2%
Fold-change — Normalized to DMSO control (BDNF) [2]: 1.1 fold

COc1ccc(C(=O)NCc2ccc(OCCN(C)C)cc2)cc1OC.Cl [Itopride hydrochloride]
Percentage of cell with nuclear Arc immunostaining above 2σ threshold: 23.8%
Fold-change — Normalized to DMSO control (BDNF) [2]: 1.2 fold

O=c1c(O)c(-c2ccc(O)cc2)oc2cc(O)cc(O)c12 [Kaempferol]
Percentage of cell with nuclear Arc immunostaining above 2σ threshold [3]: 4.0%

COC1=CC(=O)O[C@@H](/C=C/c2ccc3c(c2)OCO3)C1 [Kavahin]
Percentage of cell with nuclear Arc immunostaining above 2σ threshold: 36.5%
Fold-change — Normalized to DMSO control (BDNF) [2]: 1.9 fold

COC1=CC(=O)O[C@@H](/C=C/c2ccccc2)C1 [Kavain]
Percentage of cell with nuclear Arc immunostaining above 2σ threshold: 34.3%
Fold-change — Normalized to DMSO control (BDNF) [2]: 1.8 fold

O=C(c1ccc(F)cc1)C1CCN(CCn2c(=O)[nH]c3ccccc3c2=O)CC1 [Ketanserin]
Percentage of cell with nuclear Arc immunostaining above 2σ threshold [1]: 20.4%
Fold-change — Normalized to DMSO control (BDNF) [2]: 1.0 fold

O=C(c1ccccc1)c1ccc2n1CCC2C(=O)O (centres unmarked) [Ketorolac]
Percentage of cell with nuclear Arc immunostaining above 2σ threshold [1]: 36.8%
Fold-change — Normalized to DMSO control (BDNF) [2]: 1.9 fold

CN1CCC(=C2c3ccccc3CC(=O)c3sccc32)CC1 [Ketotifen]
Percentage of cell with nuclear Arc immunostaining above 2σ threshold [1]: 12.3%

COC[C@@H](NC(C)=O)C(=O)NCc1ccccc1 [Lacosamide]
Percentage of cell with nuclear Arc immunostaining above 2σ threshold: 6.7%

Nc1nnc(-c2cccc(Cl)c2Cl)c(N)n1 [Lamotrigine]
Percentage of cell with nuclear Arc immunostaining above 2σ threshold [3]: 4.8%

Cc1ccc2c(c1)c1c(n2CCc2ccc(C)nc2)CCN(C)C1 [Latrepirdine]
Percentage of cell with nuclear Arc immunostaining above 2σ threshold [1]: 34.3%
Fold-change — Normalized to DMSO control (BDNF) [2]: 1.8 fold

CC[C@@H](C(N)=O)N1CCCC1=O [Levetiracetam]
Percentage of cell with nuclear Arc immunostaining above 2σ threshold [3]: 7.9%

C[N+](C)(C)C[C@H](O)CC(=O)[O-] [Levocarnitine]
Percentage of cell with nuclear Arc immunostaining above 2σ threshold [3]: 10.1%

CCN1CCC[C@H]1CNC(=O)c1cc(S(N)(=O)=O)ccc1OC [Levosulpiride]
Percentage of cell with nuclear Arc immunostaining above 2σ threshold [1]: 28.2%
Fold-change — Normalized to DMSO control (BDNF) [2]: 1.4 fold

CN1CCN(C2=Nc3ccccc3Oc3ccc(Cl)cc32)CC1 [Loxapine]
Percentage of cell with nuclear Arc immunostaining above 2σ threshold [1]: 21.2%
Fold-change — Normalized to DMSO control (BDNF) [2]: 1.1 fold

O=C1[C@@H]2[C@H]3CC[C@H](C3)[C@@H]2C(=O)N1C[C@@H]1CCCC[C@H]1CN1CCN(c2nsc3ccccc23)CC1 [Lurasidone]
Percentage of cell with nuclear Arc immunostaining above 2σ threshold [1]: 39.0%
Fold-change — Normalized to DMSO control (BDNF) [2]: 2.0 fold

O=c1cc(-c2ccc(O)c(O)c2)oc2cc(O)cc(O)c12 [Luteolin]
Percentage of cell with nuclear Arc immunostaining above 2σ threshold [1]: 22.1%
Fold-change — Normalized to DMSO control (BDNF) [2]: 1.1 fold

CNC1(C)C2CCC(C2)C1(C)C (centres unmarked) [Mecamylamine]
Percentage of cell with nuclear Arc immunostaining above 2σ threshold [3]: 11.9%

CN(C)CCOC(=O)COc1ccc(Cl)cc1.Cl [Meclofenoxate hydrochloride]
Percentage of cell with nuclear Arc immunostaining above 2σ threshold: 28.2%
Fold-change — Normalized to DMSO control (BDNF) [2]: 1.4 fold

COc1ccc2[nH]cc(CCNC(C)=O)c2c1 [Melatonin]
Percentage of cell with nuclear Arc immunostaining above 2σ threshold [1]: 25.2%
Fold-change — Normalized to DMSO control (BDNF) [2]: 1.3 fold

CC12CC3CC(C)(C1)CC(N)(C3)C2 [Memantine]
Percentage of cell with nuclear Arc immunostaining above 2σ threshold [1]: 17.1%

CC(=O)/N=c1/sc(S(N)(=O)=O)nn1C [Methazolamide]
Percentage of cell with nuclear Arc immunostaining above 2σ threshold [3]: 11.8%

CN1CCCC(CC2c3ccccc3Sc3ccccc32)C1 (centres unmarked) [Metixene]
Percentage of cell with nuclear Arc immunostaining above 2σ threshold [3]: 6.7%

CN1CCN2c3ccccc3Cc3ccccc3C2C1 (centres unmarked) [Mianserin]
Percentage of cell with nuclear Arc immunostaining above 2σ threshold [1]: 18.5%

CC#C[C@]1(O)CC[C@H]2[C@@H]3CCC4=CC(=O)CCC4=C3[C@@H](c3ccc(N(C)C)cc3)C[C@@]21C [Mifepristone]
Percentage of cell with nuclear Arc immunostaining above 2σ threshold [1]: 43.7%
Fold-change — Normalized to DMSO control (BDNF) [2]: 2.2 fold

CCN(CC)C(=O)C1(c2ccccc2)CC1CN (centres unmarked) [Milnacipran]
Percentage of cell with nuclear Arc immunostaining above 2σ threshold [1]: 13.2%

Cc1cc(-c2ccccc2)nnc1NCCN1CCOCC1 [Minaprine]
Percentage of cell with nuclear Arc immunostaining above 2σ threshold [1]: 21.8%
Fold-change — Normalized to DMSO control (BDNF) [2]: 1.1 fold

CN1CCN2c3ncccc3Cc3ccccc3C2C1 (centres unmarked) [Mirtazapine]
Percentage of cell with nuclear Arc immunostaining above 2σ threshold [3]: 4.5%

O=C(NCCN1CCOCC1)c1ccc(Cl)cc1 [Moclobemide]
Percentage of cell with nuclear Arc immunostaining above 2σ threshold [3]: 8.9%

CCc1c(C)[nH]c2c1C(=O)C(CN1CCOCC1)CC2 (centres unmarked) [Molindone]
Percentage of cell with nuclear Arc immunostaining above 2σ threshold [1]: 36.4%
Fold-change — Normalized to DMSO control (BDNF) [2]: 1.9 fold

NC(=O)C1=CN([C@@H]2O[C@H](COP(=O)(O)OP(=O)(O)OC[C@H]3O[C@@H](n4cnc5c(N)ncnc54)[C@H](O)[C@@H]3O)[C@@H](O)[C@H]2O)C=CC1 [NADH]
Percentage of cell with nuclear Arc immunostaining above 2σ threshold [1]: 25.0%
Fold-change — Normalized to DMSO control (BDNF) [2]: 1.3 fold

O=C(O)c1cc2cc(O)c(O)cc2c(C(=O)c2ccc(O)c(O)c2)n1 [NBI-31772]
Percentage of cell with nuclear Arc immunostaining above 2σ threshold: 2.7%
Fold-change — Normalized to DMSO control (BDNF) [4]: -7.3 fold

COc1ccccc1C1(O)CCN(CCCn2c3ccccc3c3ccccc32)CC1 [NNC 05-2090]
Percentage of cell with nuclear Arc immunostaining above 2σ threshold: 0.0%
Fold-change — Normalized to DMSO control (BDNF) [4]: 0.0 fold

Cl.O=C(O)C1=CCCN(CCON=C(c2ccccc2)c2ccccc2)C1 [NNC 711 hydrochloride]
Percentage of cell with nuclear Arc immunostaining above 2σ threshold: 21.4%
Fold-change — Normalized to DMSO control (BDNF) [2]: 1.1 fold

C[C@@]1(C(=O)N[C@@H](CCC(=O)O)C(=O)O)CCCN1C(=O)CN [NNZ-2566] (H-Gly-[αMeP]-Glu-OH)
Percentage of cell with nuclear Arc immunostaining above 2σ threshold [3]: 6.7%
Fold-change — Normalized to DMSO control (BDNF) [4]: -2.9 fold

Cc1cccc(C)c1NC(=O)CN1CCCC1=O [Nefiracetam]
Percentage of cell with nuclear Arc immunostaining above 2σ threshold [1]: 19.7%
Fold-change — Normalized to DMSO control (BDNF) [2]: 1.0 fold

O=C(CCNNC(=O)c1ccncc1)NCc1ccccc1 [Nialamide]
Percentage of cell with nuclear Arc immunostaining above 2σ threshold [1]: 29.9%
Fold-change — Normalized to DMSO control (BDNF) [2]: 1.5 fold

CO[C@]12C[C@@H](COC(=O)c3cncc(Br)c3)CN(C)[C@@H]1Cc1cn(C)c3cccc2c13 [Nicergoline]
Percentage of cell with nuclear Arc immunostaining above 2σ threshold [3]: 6.1%

O=C(O)C1CCCNC1 (centres unmarked) [Nipecotic acid]
Percentage of cell with nuclear Arc immunostaining above 2σ threshold: 26.3%
Fold-change — Normalized to DMSO control (BDNF) [2]: 1.4 fold

CNCCC(Oc1ccccc1OC)c1ccccc1 (centres unmarked) [Nisoxetine hydrochloride]
Percentage of cell with nuclear Arc immunostaining above 2σ threshold: 19.1%

CC(C)C[C@H](NC(=O)[C@H](CCCCN)NC(=O)[C@H](CCCN=C(N)N)NC(=O)[C@H](C)NC(=O)[C@H](CO)NC(=O)[C@H](CCCCN)NC(=O)[C@H](CCCN=C(N)N)NC(=O)[C@H](C)NC(=O)CNC(=O)[C@@H](NC(=O)[C@H](Cc1ccccc1)NC(=O)CNC(=O)CNC(=O)[C@@H](N)Cc1ccccc1)[C@@H](C)O)C(=O)N[C@@H](C)C(=O)N[C@@H](CC(N)=O)C(=O)N[C@@H](CCC(N)=O)C(=O)O [Nociceptin]
Percentage of cell with nuclear Arc immunostaining above 2σ threshold: 21.6%
Fold-change — Normalized to DMSO control (BDNF) [2]: 1.1 fold

Cc1cc2c(s1)Nc1ccccc1N=C2N1CCN(C)CC1 [Olanzapine]
Percentage of cell with nuclear Arc immunostaining above 2σ threshold: 19.4%
